Measurements: patent US12721832B2, “Anti-senescence plant polyphenol drug downregulating senescence-related secretory phenotype and use thereof” (BYHEALTH CO., LTD., priority 2021, dated 2026)

What was measured:
Format in all cases: in vivo
[1] = test system: PC3/PSC27 xenograft tumors; assay: PC3/PSC27 xenograft tumor terminal volume in NOD/SCID mice; details: end of 8th week
Excerpt: Every two weeks was a dosing cycle, and MIT (mitoxantrone) was intraperitoneally administered to the mice on the first day of the 3rd/5th/7th weeks. From the first day of the 5th week, the mice were intraperitoneally administrated with PCC1, once a week. After the 8-week course of treatment, the mice were dissected for pathological identification and expression analysis.
Chemotherapeutic drug MIT alone or together with anti-senescence drug PCC1 was used to administer mice, and after the 8th week, the tumor size of each group was compared and analyzed.
All experimental mouse experiments were carried out in strict accordance with the relevant regulations of the Institutional Animal Care and Use Committee (IACUC), Shanghai Institutes for Biological Sciences, Chinese Academy of Sciences. Immunodeficient mice (NOD-SCID mice, ICR) (body weight about 25 g) aged 6-8 weeks were used for animal experiments related to the present patent. Stromal cells PSC27 and epithelial cells PC3 were mixed at a predetermined ratio of 1:4, and each graft contained 1.25×10^6 cells for tissue remodeling. The xenograft tumors were implanted into mice by subcutaneous transplantation, and the animals were euthanized 8 weeks after the end of the transplantation surgery. Tumor volume was calculated according to the following formula: V=(π/6)×[…] (V, volume; l, length; w, width).
(§1) In a preclinical treatment trial, subcutaneously transplanted mice were fed with a standard experimental diet, after 2 weeks chemotherapy drugs mitoxantrone (MIT, dose: 0.2 mg/kg) and/or procyanidin C1 (PCC1) (500 μl, dose: 10 mg/kg) via intraperitoneal administration. The time points were: the former was administrated on the first day of the 3rd, 5th and 7th weeks, and the latter was administrated on the first day of the 5th and 7th weeks. A total of 3 cycles of MIT administration were carried out throughout the course of treatment, and each cycle lasted for 2 weeks. After the course of treatment, mouse tumors were harvested for volume measurement and histological analysis. Each mouse cumulatively received 0.6 mg/kg body weight of MIT and […] body weight of PCC1. In order to cause systemic expression of SASP factor induced by chemotherapy, MIT was administered to mice through […] according to the above steps and sequence, but the dose was reduced to 0.1 mg/kg body weight/each time (the cumulative dose of MIT received in the whole course of treatment was 0.3 mg/kg body weight) to reduce drug-related toxicity. The chemotherapy experiment ended at the end of the 8th week, and the mice were dissected immediately after sacrifice, and the xenograft tumors were collected and used for pathological system analysis.

[2] = test system: senescent cells in tumor tissue; assay: SA-β-Gal staining of tumor tissue in PC3/PSC27 tumor-bearing mice; details: PCC1 administered to MIT-treated animals
Protocol: Representative pictures after SA-β-Gal staining. Scale bar, 100 μm.
A P>0.05; **, P<0.01; ***, P<0.001.
as §1, with “The chemotherapy experiment ended at the end of the 8th week, and the mice were dissected immediately after sacrifice, and the xenograft tumors were collected and used for pathological system analysis.” left out

aged C57BL/6 mice = assay: Lifespan study in aged C57BL/6 mice; details: from age 24-27 months
Protocol: Starting at 24 to 27 months of age, C57BL/6 mice received intraperitoneal administration of vehicle or PCC1 every two weeks (n=80 for vehicle group; n=91 for PCC1 group). The median survival of animals in each group was calculated and indicated. ****, P<0.0001.
Starting at 24 to 27 months of age, C57BL/6 mice received intraperitoneal administration of vehicle or PCC1 every two weeks (n=80 for vehicle group; n=91 for PCC1 group). The median lifetime survival of animals in each group was calculated and indicated. ****, P <0.0001.
For the cell transplantation study, we obtained […] male C57BL/6 mice by serial rearing in the SPF animal platform, with 4 to 5 animals per cage. We first sorted the mice by body weight from low to high, and then selected mice with similar body weights. Next, the mice were assigned to senescence (SEN) or control (CTRL) transplant treatment at each interval using a random number generator, while the middle mice were assigned to the other treatment, so that the body weights of the senescence and control transplant mice were matched. One month after cell transplantation, when the mice were 18 months old, physical function tests were performed. After that, no further testing was done on the mice other than checking their cages. The earliest deaths occurred approximately 2 months after the last physical function test. […]

[3] = PCC1 administered to mice treated with MIT

Compound: Oc1cc(O)c2c(c1)O[C@H](c1ccc(O)c(O)c1)[C@H](O)[C@H]2c1c(O)cc(O)c2c1O[C@H](c1ccc(O)c(O)c1)[C@H](O)[C@H]2c1c(O)cc(O)c2c1O[C@H](c1ccc(O)c(O)c1)[C@H](O)C2 [PCC1, procyanidin C1]
- reduction in tumor volume compared with MIT [1, 3]: 55.2%
- reduction in tumor volume compared with placebo treatment [1, 3]: 74.9%
- reduction in tumor size compared to placebo ([1]; single agent, i.p.): did not cause tumor shrinkage
- senescent cells within lesions of chemotherapeutic (MIT) animals [2]: substantially depleted most senescent cells
- risk of death HR, PCC1 group/vehicle group (aged C57BL/6 mice; P<0.0001): 0.35
- median survival period after treatment, longer than vehicle group (aged C57BL/6 mice; drug every two weeks): 64.2%
